Source: paper PMC12467033, “Exploring the Inhibitory Potential of Six Porphyrin Compounds Against α-Amylase and α-Glucosidase Linked to Diabetes” (Biomolecules, 2025)
Values joined by “and” are separate entries in the source; they are usually repeats but may differ in a detail not shown here. Equal values may be shown once. Read-outs that look alike come from different tables or passages of the source.

How the values were obtained:
[1] = target: T1, α-amylase (Sus scrofa, UniProt P00690); assay: Three-dimensional fluorescence spectroscopy of α-amylase complexes; conditions: 298 K; TAPP 2.5, THPP 10, TCPP 10, Fe–TCPP 12.5, Ni–TCPP 17.5, Cu–TCPP 10 μg/mL
T1 sequence (P00690 16-511): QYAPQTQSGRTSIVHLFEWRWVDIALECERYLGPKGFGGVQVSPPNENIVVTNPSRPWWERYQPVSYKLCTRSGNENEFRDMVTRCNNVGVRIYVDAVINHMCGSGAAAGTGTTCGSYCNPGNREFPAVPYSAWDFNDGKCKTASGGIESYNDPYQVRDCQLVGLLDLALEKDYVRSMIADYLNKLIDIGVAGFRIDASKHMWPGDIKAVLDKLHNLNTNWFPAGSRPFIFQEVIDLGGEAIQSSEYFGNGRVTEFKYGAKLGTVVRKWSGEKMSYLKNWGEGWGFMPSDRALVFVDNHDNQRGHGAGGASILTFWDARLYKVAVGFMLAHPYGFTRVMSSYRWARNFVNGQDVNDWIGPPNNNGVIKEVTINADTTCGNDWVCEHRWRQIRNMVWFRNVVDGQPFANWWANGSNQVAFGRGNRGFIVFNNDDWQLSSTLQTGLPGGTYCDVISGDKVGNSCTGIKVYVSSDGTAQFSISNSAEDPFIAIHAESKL

[2] = target: T2, α-glucosidase (Saccharomyces cerevisiae, UniProt P53341); assay: In vitro stability study (temperature, pH), inhibition rate against α-glucosidase; type: physicochemical; conditions: water bath 30–100 °C, 20 min
Experimental: (§1) Samples of a certain mass concentration were subjected to a water bath at different temperatures (30, 40, 50, 60, 70, 80, 90, 100 °C) for 20 min and treated under different pH conditions (2.0, 3.0, 4.0, 5.0, 6.0, 7.0, 8.0, 9.0, and 10.0) for 20 min to determine the effect of temperature and pH on the stability of the two enzymes.

[3] = target: T1, α-amylase; assay: In vitro stability study (temperature, pH), inhibition rate against α-amylase; type: physicochemical; conditions: water bath 30–100 °C, 20 min
Experimental: as §1

[4] = target: T2, α-glucosidase; type: biochemical; conditions: for type of inhibition of α-glucosidase: Lineweaver–Burk plots; for reversibility of inhibition of α-glucosidase: enzyme 100–400 U/L, substrate 5 mmol/L; for Kis: enzyme–substrate complex inhibition constant; for Ki: free enzyme inhibition constant
From the text: In the experiment, the concentration of the fixed substrate Gal-G2-α-CNP/pNPG solution was 5 mmol/L, and the concentrations of the two enzymes (100, 200, 300, 400 U/L) were used to determine the effect of different concentrations of porphyrins on enzyme activity. The concentration of the enzyme was 200 U/L, and the concentration of the substrate Gal-G2-α-CNP/pNPG solution (2.5, 5, 7.5, 10 mmol/L) was used to determine the effect of different concentrations of porphyrins on the enzyme-catalyzed substrate activity.
Upon identifying the type of inhibition, the kinetic equations vary for different inhibition types.
In the formula, v, Vmax, Km, Ki, and Kis represent the reaction rate, maximum reaction rate, Michaelis constant, and free enzyme inhibition constant, respectively, and the binding enzyme inhibition constant. [S] denotes the substrate concentration. [I] denotes the inhibitor concentration.

[5] = MTT cytotoxicity assay; type: cell-based, human; conditions: human, HepG2 cells; for viability at 24 h: read-out: cell viability
Experimental: (§2) The cytotoxicity of six porphyrin compounds against human hepatocellular carcinoma HepG2 cells was evaluated using the MTT assay. HepG2 cells were seeded into 96-well plates at a density of 5000 cells per well and cultured for 24 h at 37 °C in a 5% CO2 incubator. Then, 100 µL of sample solutions at various concentrations (50, 100, and 200 µg/mL) was added to the experimental wells, with blank control wells and solvent control wells also included. The cells were further incubated for 24 h. After incubation, 10 µL of MTT solution (5 mg/mL) was added to each well, and the plates were incubated for another 4 h. Subsequently, 100 µL of Formazan solubilization solution was added to each well, followed by gentle mixing. The plates were returned to the incubator and maintained until complete dissolution of Formazan crystals was observed under a microscope. The absorbance at 570 nm was measured using a microplate reader (Meigu Molecular Instrument Company, Shanghai, China), and the survival rate of HepG2 cells was calculated.(12) Cell viability=As-Ab/Ac-Ab×100%
(§3) In the formula, As represents the absorbance of the sample well, Ac denotes the absorbance of the blank control well (without the drug), and Ab refers to the absorbance of the solvent control well (devoid of both cells and the drug).

[6] = target: T1, α-amylase; assay: α-Amylase inhibitory activity assay (Gal-G2-α-CNP substrate); type: biochemical; conditions: 37 °C, pH 6.8
Experimental: The inhibitory activity detection process was slightly modified, with reference as the base method from the literature. […] After thorough mixing, the samples were pre-incubated at 37 °C for 10 min. Subsequently, 100 μL of 5 mmol/L Gal-G2-α-CNP substrate was added to each sample. Following a 3 min reaction period, the absorbance of the solutions at 405 nm was measured using a microplate reader. The inhibition rate (%) was calculated based on the absorbance readings according to Formula (1).(1) inhibition rate%=(1−(A1−A2)/(A3−A4))×100
In the formula, A1 represents the sample group; A2 represents the sample control group (where the enzyme was replaced with phosphate buffer); A3 represents the blank control group; and A4 represents the reagent blank control group (containing blank sample solution and phosphate buffer).
(§4) Using the enzyme inhibition rate as the y-axis and the inhibitor concentration as the x-axis, the IC50 value was calculated through linear regression fitting with GraphPad Prism software (5.0).

[7] = system: HepG2 cells; assay: MTT cytotoxicity assay; type: cell-based, human; conditions: HepG2, 50–200 μg/mL, 24 h
Experimental: as §2, §3

[8] = target: T2, α-glucosidase; assay: α-Glucosidase inhibitory activity assay (pNPG substrate); type: biochemical; conditions: 37 °C
Experimental: The experimental groups were supplemented with different concentrations of porphyrin compounds, followed by the addition of 100 μL of 5 mmol/L pNPG. After thorough mixing, the samples were pre-incubated at 37 °C for 10 min. Subsequently, the reaction was terminated by adding 0.1 mol/L of sodium carbonate (Na2CO3) solution. Following a 3 min reaction period, the absorbance of the solutions at 405 nm was measured using a microplate reader. The inhibition rate (%) was subsequently calculated using Formula (1).
as §4

T2 sequence (P53341 whole entry): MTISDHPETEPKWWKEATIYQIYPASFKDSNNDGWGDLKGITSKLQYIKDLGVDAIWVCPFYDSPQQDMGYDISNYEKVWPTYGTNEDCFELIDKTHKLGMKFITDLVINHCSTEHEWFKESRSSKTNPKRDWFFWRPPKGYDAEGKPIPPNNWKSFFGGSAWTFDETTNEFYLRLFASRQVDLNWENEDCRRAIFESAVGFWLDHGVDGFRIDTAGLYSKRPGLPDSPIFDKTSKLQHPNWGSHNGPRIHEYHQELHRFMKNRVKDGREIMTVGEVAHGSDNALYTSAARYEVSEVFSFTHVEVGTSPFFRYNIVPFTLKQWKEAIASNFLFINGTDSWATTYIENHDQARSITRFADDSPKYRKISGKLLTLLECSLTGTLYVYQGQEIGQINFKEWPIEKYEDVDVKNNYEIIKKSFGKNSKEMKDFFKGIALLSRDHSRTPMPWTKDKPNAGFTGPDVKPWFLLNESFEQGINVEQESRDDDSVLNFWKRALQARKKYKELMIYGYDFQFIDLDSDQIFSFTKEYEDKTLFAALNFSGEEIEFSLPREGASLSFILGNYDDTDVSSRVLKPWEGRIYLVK

O=C(O)c1ccc(-c2c3nc(c(-c4ccc(C(=O)O)cc4)c4ccc([nH]4)c(-c4ccc(C(=O)O)cc4)c4nc(c(-c5ccc(C(=O)O)cc5)c5ccc2[nH]5)C=C4)C=C3)cc1 [TCPP]
Peak 1 Fluorescence Intensity [1]: 461.6 | Peak 2 Fluorescence Intensity [1]: 58.06 | thermal stability: inhibition rate against α-glucosidase [2]: remained relatively stable | thermal stability: inhibition rate against α-amylase [3]: small fluctuations | Vmax ([4]; C 5 μg/mL): 0.1369 ± 0.0049 ΔOD/min | Vmax ([4]; C 25 μg/mL): 0.1016 ± 0.0014 ΔOD/min | Vmax ([4]; C 50 μg/mL): 0.0745 ± 0.0019 ΔOD/min | Vmax ([4]; C 100 μg/mL): 0.0516 ± 0.0017 ΔOD/min | Vmax ([4]; C 150 μg/mL): 0.0389 ± 0.0006 ΔOD/min | type of inhibition of α-glucosidase [4]: mixed type | reversibility of inhibition of α-glucosidase [4]: reversible inhibition | Kis [4]: 52.5334 ± 0.1408 µg/mL | viability at 24 h, 200 µg/mL ([5]; HepG2, 200 μg/mL, read-out: cell viability (survival rate)): 30.3 ± 3.45% | viability at 24 h ([5]; HepG2, 50–100 μg/mL): > 80%

O=C(O)c1ccc(-c2c3nc(c(-c4ccc(C(=O)O)cc4)c4ccc([nH]4)c(-c4ccc(C(=O)O)cc4)c4nc(c(-c5ccc(C(=O)O)cc5)c5ccc2[nH]5)C=C4)C=C3)cc1.[Ni+2] [Ni–TCPP, nickel (II) meso-tetra (4-carboxyphenyl) porphine]
Peak 1 Fluorescence Intensity [1]: 225.2 | Peak 2 Fluorescence Intensity [1]: 9.012 | thermal stability: inhibition rate against α-glucosidase [2]: remained relatively stable | IC50 α-amylase [6]: 156.26 ± 0.48 µg/mL | thermal stability: inhibition rate against α-amylase [3]: small fluctuations | Km [4]: 3.0491 ± 0.0776 µg/mL and 3.3243 ± 0.0748 µg/mL and 3.5279 ± 0.0812 µg/mL and 3.8090 ± 0.1419 µg/mL and 4.1248 ± 0.0704 µg/mL | Vmax ([4]; C 5 μg/mL): 0.1036 ± 0.0026 ΔOD/min | Vmax ([4]; C 7.5 μg/mL): 0.0909 ± 0.0020 ΔOD/min | Vmax ([4]; C 10 μg/mL): 0.0791 ± 0.0018 ΔOD/min | Vmax ([4]; C 15 μg/mL): 0.0628 ± 0.0023 ΔOD/min | Vmax ([4]; C 25 μg/mL): 0.0444 ± 0.0008 ΔOD/min | type of inhibition of α-glucosidase [4]: mixed type | reversibility of inhibition of α-glucosidase [4]: reversible inhibition | Kis [4]: 9.2257 ± 0.0312 µg/mL | Ki [4]: 3.8703 ± 0.0201 µg/mL | cell viability [7]: above 88% | IC50 α-GLU [8]: 6.58 ± 0.21 µg/mL

Nc1ccc(-c2c3nc(c(-c4ccc(N)cc4)c4ccc([nH]4)c(-c4ccc(N)cc4)c4nc(c(-c5ccc(N)cc5)c5ccc2[nH]5)C=C4)C=C3)cc1 [TAPP]
Peak 1 Fluorescence Intensity [1]: 317.2 | Peak 2 Fluorescence Intensity [1]: 7.013 | Vmax ([4]; C 12.5 μg/mL): 0.0791 ± 0.0021 ΔOD/min | Vmax ([4]; C 15 μg/mL): 0.0767 ± 0.0013 ΔOD/min | Vmax ([4]; C 17.5 μg/mL): 0.0736 ± 0.0015 ΔOD/min | Vmax ([4]; C 20 μg/mL): 0.0711 ± 0.0011 ΔOD/min | Vmax ([4]; C 22.5 μg/mL): 0.0688 ± 0.0012 ΔOD/min | type of inhibition of α-glucosidase [4]: mixed type | reversibility of inhibition of α-glucosidase [4]: reversible inhibition | Kis [4]: 55.1227 ± 0.1247 µg/mL | viability at 24 h ([5]; HepG2, 50–200 μg/mL): > 97%

iron (III) meso-tetra (4-carboxyphenyl) porphyrin chloride [Fe–TCPP]
Peak 1 Fluorescence Intensity [1]: 270.8 | Peak 2 Fluorescence Intensity [1]: 28.26 | thermal stability: inhibition rate against α-glucosidase [2]: remained relatively stable | IC50 α-amylase [6]: 95.75 ± 0.62 µg/mL | thermal stability: inhibition rate against α-amylase [3]: small fluctuations | Km [4]: 2.6958 ± 0.0821 µg/mL and 3.3979 ± 0.1076 µg/mL and 3.9231 ± 0.1098 µg/mL and 4.1566 ± 0.0981 µg/mL and 4.3847 ± 0.0694 µg/mL | Vmax ([4]; C 16 μg/mL): 0.0771 ± 0.0023 ΔOD/min | Vmax ([4]; C 32 μg/mL): 0.0601 ± 0.0019 ΔOD/min | Vmax ([4]; C 48 μg/mL): 0.0502 ± 0.0014 ΔOD/min | Vmax ([4]; C 64 μg/mL): 0.0416 ± 0.0010 ΔOD/min | Vmax ([4]; C 80 μg/mL): 0.0361 ± 0.0006 ΔOD/min | type of inhibition of α-glucosidase [4]: mixed type | reversibility of inhibition of α-glucosidase [4]: reversible inhibition | Kis [4]: 40.4085 ± 0.1084 µg/mL | Ki [4]: 9.8917 ± 0.0514 µg/mL | IC50 α-GLU [8]: 23.93 ± 0.53 µg/mL

Oc1ccc(-c2c3nc(c(-c4ccc(O)cc4)c4ccc([nH]4)c(-c4ccc(O)cc4)c4nc(c(-c5ccc(O)cc5)c5ccc2[nH]5)C=C4)C=C3)cc1 [THPP]
Peak 1 Fluorescence Intensity [1]: 297.5 | Peak 2 Fluorescence Intensity [1]: 32.69 | thermal stability: inhibition rate against α-glucosidase [2]: remained relatively stable | thermal stability: inhibition rate against α-amylase [3]: small fluctuations | Vmax ([4]; C 1 μg/mL): 0.1528 ± 0.0020 ΔOD/min | Vmax ([4]; C 2.5 μg/mL): 0.1013 ± 0.0035 ΔOD/min | Vmax ([4]; C 5 μg/mL): 0.0649 ± 0.0019 ΔOD/min | Vmax ([4]; C 7.5 μg/mL): 0.0489 ± 0.0009 ΔOD/min | Vmax ([4]; C 10 μg/mL): 0.0377 ± 0.0009 ΔOD/min | type of inhibition of α-glucosidase [4]: non-competitive inhibition | reversibility of inhibition of α-glucosidase [4]: reversible inhibition | cytotoxicity (in words) [7]: certain cytotoxic effects
